In ChEMBL document CHEMBL1141912, “Novel beta-(imidazol-4-yl)-beta-amino acids: solid-phase synthesis and study of their inhibitory activity against geranylgeranyl protein transferase type I” (Bioorg Med Chem Lett, 2005) one finds IC50 and inhibition data, which are given here for 30 compounds.

Broadly, the IC50 is the concentration at which inhibition is half-maximal. Read a low IC50 as inhibition by little substance. One may read the inhibition as the share of the control response that was lost under treatment.

SMILES strings stand for the structures.

The first experiment deals with Protein farnesyltransferase (Homo sapiens, UniProt P49354+P49356). The experiment in a line: Inhibition of Farnesyltransferase. Type of experiment: protein-complex assay.
The compound `Fc1ccc(CCN(Cc2ccc(Oc3ccccc3)cc2)Cc2c[nH]cn2)cc1` gave an IC50 greater than 10000 nM.
Consider `Brc1ccc(CCN(Cc2ccc(Oc3ccccc3)cc2)Cc2c[nH]cn2)cc1`, for which the IC50 was greater than 10000 nM.

In another experiment the target is T1, Geranylgeranyl transferase type I (Homo sapiens, UniProt P49354+P53609). Put plainly: Inhibition of Geranylgeranyl transferase type I. Type of experiment: protein-complex assay.
As to `O=C(O)CC(c1cnc[nH]1)N(CCc1ccc(F)cc1)Cc1ccc(-c2ccccc2)cc1` (centres undefined), the IC50 was determined as 1100 nM.
The compound `Fc1ccc(CCN(Cc2ccc(Oc3ccccc3)cc2)Cc2c[nH]cn2)cc1` returned a concentration for half-maximal inhibition (IC50) of 460 nM.
Same read-out and setting: for `O=C(O)CC(c1cnc[nH]1)N(CCc1ccc(F)cc1)Cc1ccc(Oc2ccccc2)cc1` (centres undefined) the value was 90 nM; for `CCCCOc1ccc(S(=O)(=O)N(CCc2ccc(F)cc2)C(CC(=O)O)c2cnc[nH]2)cc1` (centres undefined), 1070 nM.
Turning to `O=C(O)CC(c1cnc[nH]1)N(CCc1cccs1)Cc1ccc(-c2ccccc2)cc1` (centres undefined), 1070 nM corresponded to half-maximal inhibition (IC50).
Still for that read-out and setting: for `Brc1ccc(CCN(Cc2ccc(Oc3ccccc3)cc2)Cc2c[nH]cn2)cc1` the value was 256 nM; for `COC(=O)C(CC(C)C)NC(=O)c1ccc(NCC(N)CS)cc1-c1cccc2ccccc12` (centres undefined), 150 nM.
Still for that read-out and setting: the figure for `O=C(O)CC(c1cnc[nH]1)N(CCCCc1ccccc1)Cc1ccc(Oc2ccccc2)cc1` (centres undefined) is 860 nM.

For a further experiment, the target named is T1, Geranylgeranyl transferase type I. The experiment in a line: Percent inhibition of Geranylgeranyl transferase type I at 10 uM. Type of experiment: protein-complex assay.
`O=C(O)CC(NC1CCN(Cc2ccccc2)CC1)c1c[nH]cn1` (centres undefined) registered an inhibition of 21%.
Same read-out and setting: for `O=C(O)CC(c1c[nH]cn1)N(CCCCCCO)CC(c1ccccc1)c1ccccc1` (centres undefined) the value was 0%; for `O=C(O)CC(c1c[nH]cn1)N(CCCCCCO)Cc1c[nH]c(-c2ccccc2)n1` (centres undefined), 0%.
On the same count and under the same terms, the figure for `Fc1ccc(CCN(Cc2ccc(Oc3ccccc3)cc2)Cc2c[nH]cn2)cc1` is 78%.
Same read-out and setting: for `Brc1ccc(CCN(Cc2ccc(-c3ccccc3)cc2)Cc2c[nH]cn2)cc1` the value was 77%; for `O=C(O)CC(c1c[nH]cn1)N(Cc1nc[nH]n1)CC1CCCCC1` (centres undefined), 8%.
`O=C(O)CC(c1c[nH]cn1)N(CC1CCCCC1)S(=O)(=O)c1cc(Cl)sc1Cl` (centres undefined) yielded an inhibition of 21%.
`O=C(O)CC(c1c[nH]cn1)N(CCc1cccs1)Cc1ccccn1` (centres undefined) came in with an inhibition of 11%.
`CCCCCCN(Cc1nc[nH]n1)C(CC(=O)O)c1c[nH]cn1` (centres undefined) yielded an inhibition of 3%.
The same measure, in the same setting: for `Brc1ccc(CCN(Cc2ccc(Oc3ccccc3)cc2)Cc2c[nH]cn2)cc1` the value was 88%; for `Cc1ccc(CCN(Cc2ccc(Oc3ccccc3)cc2)Cc2c[nH]cn2)cc1`, 72%; for `O=C(O)CC(c1c[nH]cn1)N(CCc1ccc(F)cc1)S(=O)(=O)c1cc(Cl)sc1Cl` (centres undefined), 53%.
Same read-out and setting: the figure for `CCCCOc1ccc(S(=O)(=O)N(CCc2ccc(F)cc2)C(CC(=O)O)c2c[nH]cn2)cc1` (centres undefined) is 78%; for `O=C(O)CC(c1c[nH]cn1)N(Cc1nc[nH]n1)C1CCN(Cc2ccccc2)CC1` (centres undefined) it is 11%.
Same read-out and setting: the figure for `O=C(O)CC(c1c[nH]cn1)N(CC(c1ccccc1)c1ccccc1)C1CCN(Cc2ccccc2)C1` (centres undefined) is 18%; for `Brc1ccc(CCN(Cc2ccc3ccccc3c2)Cc2c[nH]cn2)cc1` it is 69%.
In the case of `c1cncc(CN(Cc2c[nH]cn2)Cc2ccco2)c1`, the inhibition was determined as 23%.
`Cc1ccccc1CN(Cc1ccc(C(C)(C)C)cc1)Cc1c[nH]cn1`: the inhibition worked out at 24%.
On the same count and under the same terms, for `CC(C)CCN(Cc1ccccn1)C(CC(=O)O)c1c[nH]cn1` (centres undefined) the value was 10%.
With `O=C(O)CC(c1c[nH]cn1)N(CCc1ccc(F)cc1)Cc1c[nH]c(-c2ccccc2)n1` (centres undefined), the inhibition was determined as 35%.
The compound `O=C(O)CC(c1c[nH]cn1)N(CCCc1ccccc1)Cc1cccc2ccccc12` (centres undefined) registered an inhibition of 74%.
On the same count and under the same terms, the figure for `CCCCOc1ccc(S(=O)(=O)N(CC2CCCCC2)C(CC(=O)O)c2c[nH]cn2)cc1` (centres undefined) is 30%.
For the compound `O=C(O)CC(c1c[nH]cn1)N(CCc1cccs1)Cc1nc[nH]n1` (centres undefined), the inhibition amounted to 16%.
Same read-out and setting: for `CCCCCCCN(Cc1ccc(Oc2ccccc2)cc1)Cc1c[nH]cn1` the value was 40%.
